pIC50: −log10 of the molar value. Active and inactive are the calls of the source. No cut-off for these calls is given here.
How the values were obtained:
HT-29 = assay: Antiproliferative activity against human HT-29 cells assessed as growth inhibition incubated for 48 hrs by sulforhodamine B assay; type: functional, cell-based; conditions: HT-29, 48 h
MCF7 = assay: Antiproliferative activity against human MCF7 cells assessed as growth inhibition incubated for 48 hrs by sulforhodamine B assay; type: functional, cell-based; conditions: MCF7, 48 h
[1] = Antiproliferative activity against human HT1080 cells assessed as growth inhibition incubated for 48 hrs by sulforhodamine B assay; type: functional, cell-based, HT-1080; conditions: for pIC50: Homo sapiens, HT-1080, 48 h, read-out: IC50; for IC50: ht-1080
M21 [2] = assay: Antiproliferative activity against human M21 cells assessed as growth inhibition incubated for 48 hrs by sulforhodamine B assay; type: functional, cell-based; conditions: M21, 48 h
M21 [3] = assay: Cell cycle arrest in human M21 cells assessed as accumulation at S phase at 1 uM after 24 hrs by DAPI staining-based flow cytometry (reference value: 17.4%); type: functional
M21 [4] = assay: Induction DNA DSBs in human M21 cells assessed as increase in gamma H2AX foci at 1 uM incubated for 24 hrs by DAPI staining based immunocytochemistry; type: cell-based
M21 [5] = assay: Cell cycle arrest in human M21 cells assessed as accumulation at subG1 phase at 1 uM after 24 hrs by DAPI staining-based flow cytometry (reference value: 1.5%); type: functional
M21 [6] = assay: Cell cycle arrest in human M21 cells assessed as accumulation at G0/G1 phase at 1 uM after 24 hrs by DAPI staining-based flow cytometry (reference value: 65.1%); type: functional
M21 [7] = assay: Cell cycle arrest in human M21 cells assessed as accumulation at G2/M phase at 1 uM after 24 hrs by DAPI staining-based flow cytometry (reference value: 16%); type: functional
M21 [8] = assay: Cell cycle arrest in human M21 cells assessed as accumulation at G2/M phase at 39 uM after 24 hrs by DAPI staining-based flow cytometry (reference value: 16%); type: functional
M21 [9] = assay: Cell cycle arrest in human M21 cells assessed as accumulation at S phase at 39 uM after 24 hrs by DAPI staining-based flow cytometry (reference value: 17.4%); type: functional
M21 [10] = assay: Cell cycle arrest in human M21 cells assessed as accumulation at G0/G1 phase at 39 uM after 24 hrs by DAPI staining-based flow cytometry (reference value: 65.1%); type: functional
M21 [11] = assay: Cell cycle arrest in human M21 cells assessed as accumulation at subG1 phase at 39 uM after 24 hrs by DAPI staining-based flow cytometry (reference value: 1.5%); type: functional
M21 [12] = assay: Cell cycle arrest in human M21 cells assessed as accumulation at subG1 phase at 7.6 uM after 24 hrs by DAPI staining-based flow cytometry (reference value: 1.5%); type: functional
M21 [13] = assay: Cell cycle arrest in human M21 cells assessed as accumulation at S phase at 7.6 uM after 24 hrs by DAPI staining-based flow cytometry (reference value: 17.4%); type: functional
M21 [14] = assay: Cell cycle arrest in human M21 cells assessed as accumulation at G0/G1 phase at 7.6 uM after 24 hrs by DAPI staining-based flow cytometry (reference value: 65.1%); type: functional
M21 [15] = assay: Cell cycle arrest in human M21 cells assessed as accumulation at G2/M phase at 7.6 uM after 24 hrs by DAPI staining-based flow cytometry (reference value: 16%); type: functional
M21 [16] = assay: Cell cycle arrest in human M21 cells assessed as accumulation at G2/M phase at 34 uM after 24 hrs by DAPI staining-based flow cytometry (reference value: 16%); type: functional
M21 [17] = assay: Cell cycle arrest in human M21 cells assessed as accumulation at S phase at 34 uM after 24 hrs by DAPI staining-based flow cytometry (reference value: 17.4%); type: functional
M21 [18] = assay: Cell cycle arrest in human M21 cells assessed as accumulation at G0/G1 phase at 34 uM after 24 hrs by DAPI staining-based flow cytometry (reference value: 65.1%); type: functional
M21 [19] = assay: Cell cycle arrest in human M21 cells assessed as accumulation at subG1 phase at 34 uM after 24 hrs by DAPI staining-based flow cytometry (reference value: 1.5%); type: functional
M21 [20] = assay: Cell cycle arrest in human M21 cells assessed as accumulation at subG1 phase at 4.1 uM after 24 hrs by DAPI staining-based flow cytometry (reference value: 1.5%); type: functional
M21 [21] = assay: Cell cycle arrest in human M21 cells assessed as accumulation at S phase at 4.1 uM after 24 hrs by DAPI staining-based flow cytometry (reference value: 17.4%); type: functional
M21 [22] = assay: Cell cycle arrest in human M21 cells assessed as accumulation at G2/M phase at 4.1 uM after 24 hrs by DAPI staining-based flow cytometry (reference value: 16%); type: functional
M21 [23] = assay: Cell cycle arrest in human M21 cells assessed as accumulation at G0/G1 phase at 4.1 uM after 24 hrs by DAPI staining-based flow cytometry (reference value: 65.1%); type: functional

Compound: Cc1ccc(OS(=O)(=O)c2ccc(NC(=O)NCCCl)cc2)cc1
- pIC50 (HT-29): 4.70
- pIC50 (MCF7): 4.72
- pIC50 [1]: 4.92
- pIC50 (M21 [2]): 4.77

Compound: CC(C)c1ccccc1OS(=O)(=O)c1ccc(NC(=O)NCCCl)cc1
- pIC50 (HT-29): 5.82
- pIC50 (MCF7): 5.74
- pIC50 [1]: 6.08
- Activity (M21 [3]): 51.8%
- pIC50 (M21 [2]): 5.82
- Activity (M21 [4]): Active
- Activity (M21 [5]): 1.2%
- Activity (M21 [6]): 23.6%
- Activity (M21 [7]): 23.4%

Compound: COc1ccccc1OS(=O)(=O)c1ccc(NC(=O)NCCCl)cc1
- pIC50 (HT-29): 4.89
- pIC50 (MCF7): 4.72
- pIC50 [1]: 5.08
- pIC50 (M21 [2]): 4.82

Compound: O=C(NCCCl)Nc1ccc(S(=O)(=O)Oc2ccc(I)cc2)cc1
- pIC50 (HT-29): 5.02
- pIC50 (MCF7): 4.96
- pIC50 [1]: 5.06
- pIC50 (M21 [2]): 4.96

Compound: Cc1cccc(OS(=O)(=O)c2ccc(NC(=O)NCCCl)cc2)c1
- pIC50 (HT-29): 5.22
- pIC50 (MCF7): 5.14
- pIC50 [1]: 5.24
- pIC50 (M21 [2]): 5.21

Compound: O=C(NCCCl)Nc1ccc(S(=O)(=O)Oc2ccccc2)cc1
- pIC50 (HT-29): 4.77
- pIC50 (MCF7): 4.72
- pIC50 [1]: 5.06
- pIC50 (M21 [2]): 4.80

Compound: CCc1cccc(OS(=O)(=O)c2ccc(NC(=O)NCCCl)cc2)c1
- Activity (M21 [8]): 68.5%
- pIC50 (HT-29): 5.25
- Activity (M21 [9]): 11.3%
- Activity (M21 [10]): 15.2%
- pIC50 (MCF7): 5.15
- pIC50 [1]: 5.42
- Activity (M21 [11]): 5%
- pIC50 (M21 [2]): 5.22

Compound: Cc1ccc(C)c(OS(=O)(=O)c2ccc(NC(=O)NCCCl)cc2)c1
- pIC50 (HT-29): 5.82
- Activity (M21 [12]): 5.5%
- pIC50 (MCF7): 5.72
- pIC50 [1]: 5.77
- Activity (M21 [13]): 11.9%
- pIC50 (M21 [2]): 5.82
- Activity (M21 [14]): 7.2%
- Activity (M21 [15]): 75.4%

Compound: O=C(NCCCl)Nc1ccc(S(=O)(=O)Oc2cccc(F)c2)cc1
- pIC50 (HT-29): 5.26
- Activity (M21 [16]): 86.9%
- pIC50 (MCF7): 5.11
- pIC50 [1]: 5.35
- Activity (M21 [17]): 4.4%
- Activity (M21 [18]): 2.5%
- pIC50 (M21 [2]): 5.28
- Activity (M21 [19]): 6.2%

Compound: CCCc1ccc(OS(=O)(=O)c2ccc(NC(=O)NCCCl)cc2)cc1
- pIC50 (HT-29): 4.96
- pIC50 (MCF7): 4.89
- pIC50 [1]: 5.28
- pIC50 (M21 [2]): 4.92

Compound: Cc1cc(C)cc(OS(=O)(=O)c2ccc(NC(=O)NCCCl)cc2)c1
- pIC50 (HT-29): 5.74
- pIC50 (MCF7): 5.54
- pIC50 [1]: 5.62
- pIC50 (M21 [2]): 5.77

Compound: CC(C)(C)c1ccc(OS(=O)(=O)c2ccc(NC(=O)NCCCl)cc2)cc1
- pIC50 (HT-29): 4.82
- pIC50 (MCF7): 4.77
- pIC50 [1]: 5.17
- pIC50 (M21 [2]): 4.74

Compound: O=C(NCCCl)Nc1ccc(S(=O)(=O)Oc2ccc(O)cc2)cc1
- IC50 [1]: Not Active

Compound: O=C(NCCCl)Nc1ccc(S(=O)(=O)Oc2ccccc2I)cc1
- pIC50 (HT-29): 5.82
- pIC50 (MCF7): 5.82
- pIC50 [1]: 5.92
- Activity (M21 [3]): 46.9%
- pIC50 (M21 [2]): 5.72
- Activity (M21 [4]): Active
- Activity (M21 [5]): 1.7%
- Activity (M21 [6]): 36.4%
- Activity (M21 [7]): 15%

Compound: N#Cc1ccc(OS(=O)(=O)c2ccc(NC(=O)NCCCl)cc2)cc1
- pIC50 (HT-29): 4.74
- pIC50 (MCF7): 4.72
- pIC50 [1]: 4.85
- pIC50 (M21 [2]): 4.72

Compound: O=C(NCCCl)Nc1ccc(S(=O)(=O)Oc2ccc(F)cc2)cc1
- pIC50 (HT-29): 4.92
- pIC50 (MCF7): 4.85
- pIC50 [1]: 4.96
- pIC50 (M21 [2]): 4.92

Compound: O=C(NCCCl)Nc1ccc(S(=O)(=O)Oc2cc(F)c(F)c(F)c2)cc1
- pIC50 (HT-29): 5.00
- pIC50 (MCF7): 4.95
- pIC50 [1]: 5.01
- pIC50 (M21 [2]): 4.95

Compound: COc1ccc(OS(=O)(=O)c2ccc(NC(=O)NCCCl)cc2)cc1
- pIC50 (HT-29): 4.66
- pIC50 (MCF7): 4.64
- pIC50 [1]: 4.82
- pIC50 (M21 [2]): 4.77

Compound: Cc1cc(OS(=O)(=O)c2ccc(NC(=O)NCCCl)cc2)cc(C)c1C
- Activity (M21 [8]): 65.1%
- pIC50 (HT-29): 5.18
- Activity (M21 [9]): 14.8%
- Activity (M21 [10]): 11.4%
- pIC50 (MCF7): 5.03
- pIC50 [1]: 5.05
- Activity (M21 [11]): 8.7%
- pIC50 (M21 [2]): 5.19

Compound: CCc1ccc(OS(=O)(=O)c2ccc(NC(=O)NCCCl)cc2)cc1
- pIC50 (HT-29): 4.82
- pIC50 (MCF7): 4.80
- pIC50 [1]: 5.01
- pIC50 (M21 [2]): 4.80

Compound: COc1ccc(OS(=O)(=O)c2ccc(NC(=O)NCCCl)cc2)cc1OC
- pIC50 (HT-29): 4.89
- pIC50 (MCF7): 4.82
- pIC50 [1]: 4.96
- pIC50 (M21 [2]): 4.92

Compound: CCc1ccccc1OS(=O)(=O)c1ccc(NC(=O)NCCCl)cc1
- pIC50 (HT-29): 5.48
- pIC50 (MCF7): 5.39
- Activity (M21 [20]): 2%
- pIC50 [1]: 5.92
- Activity (M21 [21]): 44.1%
- Activity (M21 [22]): 19.2%
- Activity (M21 [23]): 34.7%
- pIC50 (M21 [2]): 5.68

Compound: O=C(NCCCl)Nc1ccc(S(=O)(=O)Oc2cccc(I)c2)cc1
- pIC50 (HT-29): 5.89
- Activity (M21 [12]): 3.6%
- pIC50 (MCF7): 5.74
- pIC50 [1]: 5.85
- Activity (M21 [13]): 4.9%
- pIC50 (M21 [2]): 5.92
- Activity (M21 [14]): 2%
- Activity (M21 [15]): 89.5%

Compound: O=C(NCCCl)Nc1ccc(S(=O)(=O)Oc2ccc(Cl)cc2)cc1
- pIC50 (HT-29): 5.20
- Activity (M21 [16]): 65.8%
- pIC50 (MCF7): 5.14
- pIC50 [1]: 5.23
- Activity (M21 [17]): 6.6%
- Activity (M21 [18]): 19%
- pIC50 (M21 [2]): 5.22
- Activity (M21 [19]): 8.6%

Compound: CN(C)c1ccc(OS(=O)(=O)c2ccc(NC(=O)NCCCl)cc2)cc1
- IC50 [1]: Not Active

Compound: CCNC(=O)Nc1ccc(S(=O)(=O)Oc2ccccc2CC)cc1
- pIC50 [1]: 6.44

Compound: O=C(NCCCl)Nc1ccc(S(=O)(=O)Oc2cccc([N+](=O)[O-])c2)cc1
- pIC50 (HT-29): 4.77
- pIC50 (MCF7): 4.74
- pIC50 [1]: 5.00
- pIC50 (M21 [2]): 4.77

From ChEMBL document CHEMBL3632622, “Synthesis and biological evaluation of novel N-phenyl ureidobenzenesulfonate derivatives as potential anticancer agents. Part 2. Modulation of the ring B” (Eur J Med Chem, 2015)
